Drawing on patent US12371405B1, “Isoindol-sulfilimine compound and use as a sigma-2 receptor inhibitor thereof” (SHANGHAI UNIVERSITY OF MEDICINE AND HEALTH SCIENCES, priority 2024, dated 2025), this text covers IC50 and Ki for 22 compounds.

In one test the target is sigma-2 receptor (Homo sapiens, UniProt Q5BJF2). Briefly: Sigma 2 binding assay (3H-DTG radioligand, cell membrane). As to conditions: sigma-2R cell membrane, 2 hours at room temperature; for IC50: read-out: Sigma 2 Binding Assay Summary IC50; for Ki: read-out: Sigma 2 Binding Assay Summary Ki. On the procedure:
(§1) The pharmacodynamic test methods employed in this embodiment are those known to those skilled in the art; the sigma-2 receptor inhibitory activity assay kit employed in this embodiment is commercially available to those skilled in the art. sigmal/sigma-2 receptor affinity activity test:
(§2) In a 96-well plate, eight 4-fold dilutions of the test and reference compounds were made, and 1 μL of each compound was added to each well, and the wells were rearranged. The reference compound Haloperidol was added at a starting concentration of 1 μM, 1 μL of DMSO was added to the high signal control wells (High control), and 1 μL of Haloperidol was added to the low signal control wells (Low control) at a concentration of 200 μM (final concentration of 1 μM), and 100 μL of desired concentration of sigma-1R or sigma-2R cell membrane, diluted in 50 mM Tris-HCl (pH 7.4, Sigma, Cat: T1503-1 KG) was added to each well and 100 μL of desired concentration of 3H-DTG diluted in 50 mM Tris-HCl (pH 7.4) was added to each well, the 96-well plate was sealed, and incubated for 2 hours at room temperature on a shaker at 300 rpm. Simultaneously, GF/C filter plates (PerkinElmer, Cat: NET986250UC) were soaked with 0.3% PEI (Poly ethyleneimine, Sigma, Cat: P3143). After incubation, the cells were collected onto GF/C filter plates with a cell collector (PerkinElmer, model: C961961), washed 4 times with 50 mM Tris-HCl (pH 7.4) wash buffer, and then dried in an oven at 50° C. for 1 h. The bottom of the dried GF/C filter plates were sealed with a membrane, and 50 μL of scintillation solution was added into each well and sealed, and the cells were read by using a Microbeta (PerkinElmer, model: 2450 Microplate Counter). The percentage of activity was calculated using Microsoft Excel software with the formula: % Activity=100×(Sample RawValue−High Control Average)/(Low Control Average-High Control Average), using GraphPad Prism 5 data analysis software. The Dose-response-Stimulation-log [antagonist] vs. response-Variable slope model was selected for fitting analysis to obtain the IC50 value of each tested sample, and the results are shown in Table 1.

Another test has as its target sigma-1 receptor (Homo sapiens, UniProt Q99720). Briefly: Sigma1 binding assay (3H-DTG radioligand, cell membrane). As to conditions: sigma-1R cell membrane, 2 hours at room temperature; for IC50: read-out: Sigma1 Binding Assay Summary IC50; for Ki: read-out: Sigma1 Binding Assay Summary Ki. How it is done:
as §1, §2

Structures are written as SMILES.

sigma-1 receptor, sequence (Q99720 whole entry): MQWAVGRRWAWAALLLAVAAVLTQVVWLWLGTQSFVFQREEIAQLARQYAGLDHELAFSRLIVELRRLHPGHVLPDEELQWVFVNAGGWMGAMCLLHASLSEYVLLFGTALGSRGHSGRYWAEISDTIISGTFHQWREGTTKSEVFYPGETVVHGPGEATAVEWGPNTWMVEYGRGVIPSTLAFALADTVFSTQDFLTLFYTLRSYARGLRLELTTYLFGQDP
sigma-2 receptor, sequence (Q5BJF2 whole entry, species assumed): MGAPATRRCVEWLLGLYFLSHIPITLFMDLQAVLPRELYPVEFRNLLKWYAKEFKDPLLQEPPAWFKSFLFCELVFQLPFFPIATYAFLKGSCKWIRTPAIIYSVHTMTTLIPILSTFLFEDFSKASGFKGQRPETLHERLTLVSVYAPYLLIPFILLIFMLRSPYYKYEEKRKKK

As usually defined, the IC50 is the midpoint of a concentration-inhibition curve. What is called Ki is the equilibrium dissociation constant of an inhibitor or competing ligand from its target. Take `CC(=O)N=S(C)(=O)c1ccc2c(c1)CN(C(C)(C)CCc1ccc(O)c(OC(C)(C)C)c1)C2` (stereo not shown) [Compound 1, N-((2-(4-(3-(tert-butoxy)-4-hydroxyphenyl)-2-methylbutan-2-yl)isoindol-5-yl)(methyl)(oxo)-λ6-thioimido)acetamide]: at sigma-2 receptor, the IC50 was over 100 nM and the Ki is over 100 nM. In addition, on sigma-1 receptor, the IC50 is over 1000 nM and the Ki is over 1000 nM.
Take `CCC(=O)N=S(C)(=O)c1ccc2c(c1)CN(C(C)(C)CCc1ccc(O)c(OC(C)(C)C)c1)C2` (stereo not shown) [Compound 2, N-((2-(4-(3-(tert-butoxy)-4-hydroxyphenyl)-2-methylbutan-2-yl)isoindol-5-yl)(methyl)(oxo)-26-thioimido) propionamide]: the IC50 on sigma-2 receptor is over 100 nM; at sigma-1 receptor, over 1000 nM. The Ki at sigma-2 receptor is over 100 nM; at sigma-1 receptor it was over 1000 nM.
`CCCC(=O)N=S(C)(=O)c1ccc2c(c1)CN(C(C)(C)CCc1ccc(O)c(OC(C)(C)C)c1)C2` (stereo not shown) [Compound 3, N-((2-(4-(3-(tert-butoxy)-4-hydroxyphenyl)-2-methylbutan-2-yl)isoindol-5-yl)(methyl)(oxo)-26-thioimido) butanamide]: the IC50 is over 500 nM on sigma-2 receptor and over 5000 nM at sigma-1 receptor. Moreover, the Ki was over 500 nM on sigma-2 receptor and over 5000 nM on sigma-1 receptor.
Take `CCS(=O)(=NC(C)=O)c1ccc2c(c1)CN(C(C)(C)CCc1ccc(O)c(OC(C)(C)C)c1)C2` (stereo not shown) [Compound 4, N-((2-(4-(3-(tert-butoxy)-4-hydroxyphenyl)-2-methylbutan-2-yl)isoindol-5-yl)(ethyl)(oxo)-26-thioimido)acetamide]: the IC50 was over 100 nM on sigma-2 receptor and over 1000 nM at sigma-1 receptor. The results for the Ki at sigma-2 receptor and on sigma-1 receptor were over 100 nM and over 1000 nM, respectively.
On to `CCC(=O)N=S(=O)(CC)c1ccc2c(c1)CN(C(C)(C)CCc1ccc(O)c(OC(C)(C)C)c1)C2` (stereo not shown) [Compound 5, N-((2-(4-(3-(tert-butoxy)-4-hydroxyphenyl)-2-methylbutan-2-yl)isoindol-5-yl)(ethyl)(oxo)-16-thioimido) propionamide], for which the IC50 on sigma-2 receptor is over 100 nM; at sigma-1 receptor, over 1000 nM. For the same compound, the results for the Ki at sigma-2 receptor and at sigma-1 receptor were over 100 nM and over 1000 nM, respectively.
In the case of `CCCC(=O)N=S(=O)(CC)c1ccc2c(c1)CN(C(C)(C)CCc1ccc(O)c(OC(C)(C)C)c1)C2` (stereo not shown) [Compound 6, N-((2-(4-(3-(tert-butoxy)-4-hydroxyphenyl)-2-methylbutan-2-yl)isoindol-5-yl)(ethyl)(oxo)-26-thioimido) butyramide], on sigma-2 receptor, the IC50 was over 500 nM and the Ki was over 500 nM. Further, on sigma-1 receptor, the IC50 is over 5000 nM and the Ki is over 5000 nM.
With `CCCS(=O)(=NC(C)=O)c1ccc2c(c1)CN(C(C)(C)CCc1ccc(O)c(OC(C)(C)C)c1)C2` (stereo not shown) [Compound 7, N-((2-(4-(3-(tert-butoxy)-4-hydroxyphenyl)-2-methylbutan-2-yl)isoindol-5-yl)(propyl)(oxo)-26-thioimino)acetamide], on sigma-2 receptor, the IC50 was over 500 nM and the Ki is over 500 nM. In addition, at sigma-1 receptor, the IC50 was over 5000 nM and the inhibition constant Ki was over 5000 nM.
For the compound `CCCS(=O)(=NC(=O)CC)c1ccc2c(c1)CN(C(C)(C)CCc1ccc(O)c(OC(C)(C)C)c1)C2` (stereo not shown) [Compound 8, N-((2-(4-(3-(tert-butoxy)-4-hydroxyphenyl)-2-methylbutan-2-yl)isoindol-5-yl)(propyl)(oxo)-26-thioimido) propionamide], at sigma-2 receptor, the half-inhibitory concentration (IC50) is over 500 nM and the Ki was over 500 nM. On sigma-1 receptor, the IC50 was over 5000 nM and the Ki is over 5000 nM.
With `CCCC(=O)N=S(=O)(CCC)c1ccc2c(c1)CN(C(C)(C)CCc1ccc(O)c(OC(C)(C)C)c1)C2` (stereo not shown) [Compound 9, N-((2-(4-(3-(tert-butoxy)-4-hydroxyphenyl)-2-methylbutan-2-yl)isoindol-5-yl)(propyl)(oxo)-26-thioimido) butanamide], the half-inhibitory concentration (IC50) was over 500 nM on sigma-2 receptor and over 5000 nM at sigma-1 receptor. In addition, the Ki is over 500 nM at sigma-2 receptor and over 5000 nM at sigma-1 receptor.
Consider `CCCCS(=O)(=NC(C)=O)c1ccc2c(c1)CN(C(C)(C)CCc1ccc(O)c(OC(C)(C)C)c1)C2` (stereo not shown) [Compound 10], for which, at sigma-2 receptor, the IC50 is over 500 nM and the Ki is over 500 nM. On sigma-1 receptor, the IC50 was over 5000 nM and the Ki is over 5000 nM.
On to `CCCCS(=O)(=NC(=O)CC)c1ccc2c(c1)CN(C(C)(C)CCc1ccc(O)c(OC(C)(C)C)c1)C2` (stereo not shown) [Compound 11, N-((2-(4-(3-(tert-butoxy)-4-hydroxyphenyl)-2-methylbutan-2-yl)isoindol-5-yl)(butyl)(oxo)-26-thioimido) propionamide], for which, at sigma-2 receptor, the IC50 was over 500 nM and the Ki is over 500 nM. On sigma-1 receptor, the IC50 is over 5000 nM and the Ki was over 5000 nM.
As for `CCCCS(=O)(=NC(=O)CCC)c1ccc2c(c1)CN(C(C)(C)CCc1ccc(O)c(OC(C)(C)C)c1)C2` (stereo not shown) [Compound 12, N-((2-(4-(3-(tert-butoxy)-4-hydroxyphenyl)-2-methylbutan-2-yl)isoindol-5-yl)(butyl)(oxo)-26-thiimido) butyramide], at sigma-2 receptor, the IC50 is over 500 nM and the Ki is over 500 nM. In addition, on sigma-1 receptor, the IC50 was over 5000 nM and the Ki was over 5000 nM.
In the case of `CC(=O)N=S(=O)(CF)c1ccc2c(c1)CN(C(C)(C)CCc1ccc(O)c(OC(C)(C)C)c1)C2` (stereo not shown) [Compound 13, N-((2-(4-(3-(tert-butoxy)-4-hydroxyphenyl)-2-methylbutan-2-yl)isoindol-5-yl)(fluoromethyl)(oxo)-26-thioimido)acetamide], the IC50 is over 100 nM at sigma-2 receptor and over 1000 nM at sigma-1 receptor. For the same compound, the Ki at sigma-2 receptor is over 100 nM; at sigma-1 receptor, over 1000 nM.
For the compound `CC(=O)N=S(=O)(CCCF)c1ccc2c(c1)CN(C(C)(C)CCc1ccc(O)c(OC(C)(C)C)c1)C2` (stereo not shown) [Compound 14], at sigma-2 receptor, the IC50 is over 500 nM and the Ki was over 500 nM. On sigma-1 receptor, the IC50 was over 5000 nM and the Ki was over 5000 nM.
On to `CC(=O)N=S(=O)(CCCCF)c1ccc2c(c1)CN(C(C)(C)CCc1ccc(O)c(OC(C)(C)C)c1)C2` (stereo not shown) [Compound 15, N-((2-(4-(3-(tert-butoxy)-4-hydroxyphenyl)-2-methylbutan-2-yl)isoindol-5-yl)(fluoro-butyl)(oxo)-26-thioimido)acetamide], for which, at sigma-2 receptor, the IC50 was over 500 nM and the Ki is over 500 nM. Also, at sigma-1 receptor, the IC50 was over 5000 nM and the Ki is over 5000 nM.
`CC(C)(C)Oc1cc(CCC(C)(C)N2Cc3ccc(S(C)(=N)=O)cc3C2)ccc1O` (stereo not shown) [Compound 16]: at sigma-2 receptor, the IC50 was under 100 nM and the Ki was under 100 nM. Moreover, on sigma-1 receptor, the IC50 was over 100 nM and the inhibition constant Ki was over 100 nM.
As to `CCS(=N)(=O)c1ccc2c(c1)CN(C(C)(C)CCc1ccc(O)c(OC(C)(C)C)c1)C2` (stereo not shown) [Compound 17], at sigma-2 receptor, the IC50 was under 100 nM and the Ki is under 100 nM. Besides, on sigma-1 receptor, the IC50 is over 100 nM and the Ki is over 100 nM.
Regarding `CCCS(=N)(=O)c1ccc2c(c1)CN(C(C)(C)CCc1ccc(O)c(OC(C)(C)C)c1)C2` (stereo not shown) [Compound 18], at sigma-2 receptor, the IC50 is over 500 nM and the Ki was over 500 nM. Further, on sigma-1 receptor, the concentration for half-maximal inhibition (IC50) is over 5000 nM and the Ki is over 5000 nM.
With `CCCCS(=N)(=O)c1ccc2c(c1)CN(C(C)(C)CCc1ccc(O)c(OC(C)(C)C)c1)C2` (stereo not shown) [Compound 19], the IC50 on sigma-2 receptor was over 100 nM; at sigma-1 receptor, over 1000 nM. The Ki on sigma-2 receptor was over 100 nM; at sigma-1 receptor it was over 1000 nM.
On to `CC(C)(C)Oc1cc(CCC(C)(C)N2Cc3ccc(S(=N)(=O)CF)cc3C2)ccc1O` (stereo not shown) [Compound 20], for which, at sigma-2 receptor, the IC50 is under 100 nM and the Ki is under 100 nM. On sigma-1 receptor, the half-inhibitory concentration (IC50) is over 100 nM and the Ki is over 100 nM.
As for `CC(C)(C)Oc1cc(CCC(C)(C)N2Cc3ccc(S(=N)(=O)CCCF)cc3C2)ccc1O` (stereo not shown) [Compound 21], on sigma-2 receptor, the IC50 is over 500 nM and the Ki was over 500 nM. At sigma-1 receptor, the IC50 was over 5000 nM and the Ki is over 5000 nM.
`CC(C)(C)Oc1cc(CCC(C)(C)N2Cc3ccc(S(=N)(=O)CCCCF)cc3C2)ccc1O` (stereo not shown) [Compound 22]: on sigma-2 receptor, the IC50 is over 500 nM and the Ki was over 500 nM. Also, at sigma-1 receptor, the IC50 was over 5000 nM and the Ki was over 5000 nM.
